Assay results from patent US10183015B2, “Heterocyclic compounds and methods of use” (Medivation Technologies LLC, priority 2015, dated 2019).
Several values for one entry are separate records, joined by “and”; a condition that tells them apart may be missing. Equal entries are not always repeated.

How the values were obtained:
Format in all cases: in vivo
Coll1a1 = experiment: DIN mouse model: hepatic Coll1a1 (collagen 1α1) gene expression; parameters: mean liver collagen α1(I) mRNA: unit not given here; details: for Coll1a1 Dct / Coll1a1 2^DDct / Coll1a1 DDct / Coll1a1 (Ct): liver, 20 mg/kg group
Protocol: (§1) Gene expression analysis. Hepatic expression levels of genes involved in lipid metabolism (FAS, SREBP1, ACC1, SCD1), cholesterol metabolism (HMG-CoAR, LDLR), SREBP proteolysis (SCAP, INSIG1), ER stress (PERK), oxidative stress (NRF2), inflammation (MCP-1), and fibrosis (collagen 1α1) were quantified by RTqPCR. Expression level was normalized to 18S gene expression and relative expression to vehicle group was calculated with the […] method.
(§2) Male C57Bl/6J mice (8 weeks old) were housed in enriched ventilated cages (31×12.5×12.7 cm) throughout the experimental phase. Animals' cages litters were changed at least once a week. Animal were housed 5 per cage on inverted 12-hour light cycle (at 09:00 am lights off), 22±2° C. and 55±10% relative humidity. The acclimation period was 20 days. During the acclimation period, all mice were fed a standard diet (RM1 (E) 801492, SDS) and tap water ad libitum. After the acclimation period, mice were fed with the DIN diet (60% fat, cholesterol enriched) and fructose-enriched tap water ad libitum until the end of the experiment.
(§3) At 6 weeks of diet, mice were 4-hour fasted (09:00 am to 1:00 pm) and blood (150 μl/EDTA) was collected at 01:00 pm by retro-orbital bleeding under isoflurane anesthesia. Mice were then allocated in 2 homogenous groups (n=12/group) according to their plasma levels of ALT (average levels: 685U/L), AST (average levels: 627U/L) and HOMA-IR index (average value: 4.7), into 2 homogenous groups (see values at day 0 in Tables 15A and 15B ALT/AST and Tables 16A and 16B for HOMA-IR). Mice were then treated once daily by oral gavage with vehicle (Group 1) or Compound #37 at 20 mg/kg (Group 2) for 70 days.
(§4) Hepatic expression levels of genes involved in lipid (FAS, SREBP1, ACC1, SCD1), cholesterol metabolism (HMG-CoAR, LDLR), in SREBP proteolysis (SCAP, INSIG1), in ER stress (PERK), oxidative stress (NRF2), and inflammation (MCP-1) were not changed. However, expression of collagen 1α1, involved in liver fibrosis, was reduced by 66% in mice treated with Compound #37 (p<0.05 vs. vehicle).

MCP-1 = experiment: Short-term Paigen-diet NASH mouse model: hepatic MCP-1 gene expression (RT-qPCR); parameters: key to MCP-1 gene expression: 2DDct: expression relative to vehicle group, normalized to 18S (2^-ΔΔCt); key to MCP-1 gene expression: DDct: ΔCt (vs 18S) relative to vehicle group; details: 21 days
Protocol: To investigate whether Compound #37 prevents the development of pathology associated with NASH and steatosis in an acute exploratory disease model, a study was conducted using a diet-induced acute liver steatosis model in mice. As described below, in this study, C57BL/6J mice were initiated on the Paigen diet and simultaneously treated with Compound #37 (5, 20, and 40 mg/kg/day) or vehicle control (20% HPβCD 10 mL/kg/day) by oral gavage for 21 days.
After acclimation, 8-week old male C57Bl/6J mice (Charles River) weighing about 25 g were randomized in 4 groups according their body weight and treated once daily around noon by oral gavage with vehicle, or Compound #37 at various for 21 days as follows: Group 1: vehicle-20% (2-hydroxypropyl)-β-cyclodextrin (HP-β-CD) (n=10); Group 2: Compound #37, 5 mg/kg ([…]) Group 4: Compound #37, 40 mg/kg (n=10). During the treatment period, body weight and food intake (measured over 24h) were measured 3 times per week and once a week, respectively. During the acclimation, all mice were fed a standard diet (Special Diets Services RM1 (E), product no. 801492) and tap water ad libitum. After the acclimation period, mice were fed until the end of the experiment with a 60% high fat Paigen diet (60 kcal % fat, 1.25% cholesterol, and 0.5% cholate; D11061901, Research Diet) and tap water ad libitum.
as §1

[1] = tested on: diet-induced NASH obese insulin resistant mice; experiment: DIN mouse model: liver oil red O staining (% labeling)
Protocol: as §2, §3
Slides having a single hepatic lobe section stained with H&E and […] were digitized using a Nanozoomer from Hamamatsu. Sections were evaluated with knowledge of groups. […]

LDLR = experiment: DIN mouse model: hepatic LDLR gene expression; parameters: key to LDLR 2^DDct: expression relative to vehicle group, normalized to 18S; details: liver, 20 mg/kg group
Protocol: as §1, §2, §3, §4

FAS = experiment: DIN mouse model: hepatic FAS gene expression; parameters: key to 2^DDct: expression relative to vehicle group, normalized to 18S; details: 20 mg/kg group; for 18S: Gene Expression: FAS table, 18S reference; for 2^DDct / DDct / Dct / FAS: Gene Expression: FAS
Protocol: as §1, §2, §3, §4

HMGCoA = experiment: DIN mouse model: hepatic HMGCOA gene expression; details: liver, 20 mg/kg group
Protocol: as §1, §2, §3, §4

[2] = individual animals, normalised to 18S, 20 mg/kg
[3] = individual animals, vs vehicle mean, 20 mg/kg

**Q.** Which results are given for `CC(C)Cc1cc(-c2nc(-c3ccc(NS(=O)(=O)C(F)(F)F)cc3Cl)cs2)ccn1` [Compound 37, N-(3-chloro-4-(2-(2-isobutylpyridin-4-yl)thiazol-4-yl)phenyl)-1,1,1-trifluoromethanesulfonamide]?
**A.** expression of collagen 1α1 reduction (Coll1a1; 20 mg/kg, 70 days, p<0.05 vs. vehicle): 66%; mean liver collagen α1(I) mRNA (Coll1a1; 20 mg/kg/day, 10 weeks, vehicle 1.45%, p<0.05): 0.49; Coll1a1 Dct (Coll1a1; [2]): 15 and 14.23 and 17.82 and 16.38 and 15.37 and 15.65 and 15.13 and 16.1 and 16.14 and 17.48 and 12.82; Coll1a1 2^DDct (Coll1a1; [3]): 0.48 and 0.82 and 0.07 and 0.19 and 0.37 and 0.31 and 0.44 and 0.23 and 0.22 and 0.09 and 2.19; Coll1a1 DDct (Coll1a1; [3]): 1.05 and 0.28 and 3.87 and 2.43 and 1.42 and 1.7 and 1.18 and 2.15 and 2.19 and 3.53 and −1.13; Coll1a1 (Ct) (Coll1a1; individual animals, 20 mg/kg): 27.55 and 26.78 and 30.66 and 28.81 and 27.72 and 28.24 and 26.86 and 28.61 and 27.64 and 29.03 and 25.17; Coll1a1 2^DDct (Coll1a1; mean, n 11): 0.49; Coll1a1 (Ct) (Coll1a1; mean, n 11): 27.9; Coll1a1 DDct (Coll1a1; mean, n 11): 1.70; Coll1a1 Dct (Coll1a1; mean, n 11): 15.6; MCP-1 gene expression: 2DDct (MCP-1; 5 mg/kg, group mean, n 10): 0.74; MCP-1 gene expression: DDct (MCP-1; 5 mg/kg, group mean, n 10): 0.62; MCP-1 gene expression: Dct (MCP-1; 5 mg/kg, group mean, n 10): 13.9; MCP-1 gene expression: MCP-1 (MCP-1; 5 mg/kg, group mean, n 10): 26.2; MCP-1 gene expression: 2DDct (MCP-1; 5 mg/kg, individual animals): 1.08 and 0.98 and 0.28 and 1.4 and 0.5 and 0.46 and 0.85 and 1.04 and 0.48 and 0.33; MCP-1 gene expression: DDct (MCP-1; 5 mg/kg, individual animals): −0.11 and 0.03 and 1.82 and −0.49 and 0.99 and 1.11 and 0.24 and −0.06 and 1.07 and 1.59; MCP-1 gene expression: Dct (MCP-1; 5 mg/kg, individual animals): 13.2 and 13.36 and 15.15 and 12.84 and 14.32 and 14.44 and 13.57 and 13.27 and 14.4 and 14.92; MCP-1 gene expression: MCP-1 (MCP-1; 5 mg/kg, individual animals): 26.68 and 26.47 and 26.76 and 26.19 and 26.35 and 27.79 and 25.17 and 25.06 and 25.54 and 26.04; MCP-1 gene expression: 2DDct (MCP-1; 20 mg/kg, group mean, n 6): 2.15; MCP-1 gene expression: DDct (MCP-1; 20 mg/kg, group mean, n 6): −0.5; MCP-1 gene expression: Dct (MCP-1; 20 mg/kg, group mean, n 6): 12.8; MCP-1 gene expression: MCP-1 (MCP-1; 20 mg/kg, group mean, n 6): 25; MCP-1 gene expression: 2DDct (MCP-1; 20 mg/kg, individual animals): 1.27 and 2.99 and 4.08 and 3.73 and 0.54 and 0.26; MCP-1 gene expression: DDct (MCP-1; 20 mg/kg, individual animals): −0.35 and −1.58 and −2.03 and −1.9 and 0.88 and 1.95; MCP-1 gene expression: Dct (MCP-1; 20 mg/kg, individual animals): 12.98 and 11.75 and 11.3 and 11.43 and 14.21 and 15.28; MCP-1 gene expression: MCP-1 (MCP-1; 20 mg/kg, individual animals): 25.89 and 24.04 and 23.5 and 24.46 and 25.7 and 26.54; O red Oil labeling ([1]; 20 mg/kg group, mean, n 11): 12.1%; O red Oil labeling ([1]; 20 mg/kg, individual animals): 12.9% and 15.1% and 0.9% and 18.6% and 19.3% and 21.3% and 0.3% and 8.3% and 19.5% and 13.0% and 4.2%; LDLR Dct (LDLR; [2]): 12.37 and 11.75 and 14.3 and 12.94 and 13.5 and 12.33 and 12.03 and 12.22 and 12.97 and 13.44 and 11.28; LDLR 2^DDct (LDLR; [3]): 1.65 and 2.54 and 0.43 and 1.11 and 0.76 and 1.7 and 2.09 and 1.84 and 1.09 and 0.79 and 3.52; LDLR DDct (LDLR; [3]): −0.73 and −1.35 and 1.2 and −0.16 and 0.4 and −0.77 and −1.07 and −0.88 and −0.13 and 0.34 and −1.82; LDLR (Ct) (LDLR; individual animals, 20 mg/kg): 24.92 (2×) and 24.3 and 27.14 and 25.37 and 25.85 and 23.76 and 24.73 and 24.47 and 24.99 and 23.63; LDLR 2^DDct (LDLR; mean, n 11): 1.59; LDLR (Ct) (LDLR; mean, n 11): 24.9; LDLR DDct (LDLR; mean, n 11): −0.45; LDLR Dct (LDLR; mean, n 11): 12.6; 18S (FAS; individual animal, 20 mg/kg): 12.55 (2×) and 12.84 and 12.43 and 12.35 (2×) and 12.59 and 11.73 and 12.51 and 11.5 and 11.55; 18S (FAS; mean, n 11): 12.3; 2^DDct (FAS; individual animal, 20 mg/kg): 2.46 and 1.29 and 0.37 and 1.47 and 0.36 and 1.30 and 0.81 and 0.64 and 0.33 and 0.21 and 1.77; DDct (FAS; individual animal, 20 mg/kg): −1.30 and −0.37 and 1.45 and −0.56 and 1.48 and −0.38 and 0.31 and 0.64 and 1.62 and 2.28 and −0.82; Dct (FAS; individual animal, 20 mg/kg): 7.2 and 8.13 and 9.95 and 7.94 and 9.98 and 8.12 and 8.81 and 9.14 and 10.12 and 10.78 and 7.68; FAS (FAS; individual animal, 20 mg/kg): 19.75 and 20.68 and 22.79 and 20.37 and 22.33 (2×) and 20.71 and 20.54 and 21.65 and 21.62 and 20.03; 2^DDct (FAS; mean, n 11): 1; DDct (FAS; mean, n 11): 0.40; Dct (FAS; mean, n 11): 8.9; FAS (FAS; mean, n 11): 21.2; HMGCOA Dct (HMGCoA; [2]): 12.8 and 12.14 and 13.78 and 12.65 and 13.57 and 12.83 and 13.03 and 12.86 and 14.49 and 14.63 and 12.37; HMGCOA 2^DDct (HMGCoA; [3]): 1.34 and 2.12 and 0.68 and 1.49 and 0.79 and 1.31 and 1.14 and 1.28 and 0.41 and 0.38 and 1.8; HMGCOA DDct (HMGCoA; [3]): −0.42 and −1.08 and 0.56 and −0.57 and 0.35 and −0.39 and −0.19 and −0.36 and 1.27 and 1.41 and −0.85; HMGCoA (Ct) (HMGCoA; individual animals, 20 mg/kg): 25.35 and 24.69 and 26.62 and 25.08 and 25.92 and 25.42 and 24.76 and 25.37 and 25.99 and 26.18 and 24.72; HMGCOA 2^DDct (HMGCoA; mean, n 11): 1.16; HMGCOA DDct (HMGCoA; mean, n 11): −0.03; HMGCOA Dct (HMGCoA; mean, n 11): 13.2; HMGCoA (Ct) (HMGCoA; mean, n 11): 25.5
